Assays:
[1] = Inhibition of HCV NS5B after 150 mins by [33P]-CTP incorporation assay; parameters: species or system Hepacivirus hominis
Hepatitis C virus = assay: Antiviral activity against HCV subtype 1b Con1 reduction in replicon RNA level using RT-PCR by cell based replicon assay; assay type: functional, organism-based, Hepacivirus hominis
[2] = Hepatitis C virus, Con1, read-out: EC50

Structure (SMILES) | IC50 [1] | EC50 (Hepatitis C virus; [2]) | EC50 (Hepatitis C virus)
Cc1cccc(Cn2c(C(=O)O)c(-c3ccccc3F)c3cc(Cl)ccc32)c1 | 2.5 µM | > 25 µM | –
Nc1cc(Cn2c(C(=O)O)c(N3CCCNS3(=O)=O)c3cc(Cl)ccc32)ccn1 | > 20 µM | – | Not Active
COc1ccc2c(c1)c(-c1ccc[nH]c1=O)c(C(=O)O)n2Cc1ccc(F)cc1F | 0.043 µM | 11 µM | –
Nc1cccc(Cn2c(C(=O)O)c(-c3ccccc3F)c3cc(Cl)ccc32)c1 | 0.2 µM | > 25 µM | –
CC(=O)n1c(C(=O)O)c(-c2ccccc2F)c2cc(Cl)ccc21 | 8.1 µM | > 25 µM | –
O=C(O)c1c(-c2ccc[nH]c2=O)c2cc(Br)ccc2n1Cc1ccc(F)cc1F | 0.043 µM | 7.6 µM | –
O=C(O)c1c(-c2ccc(F)cc2F)c2cc(Cl)ccc2n1Cc1cccc(Cl)c1 | 1.1 µM | > 25 µM | –
COc1ccccc1-c1c(C(=O)O)n(Cc2ccccc2F)c2ccc(Cl)cc12 | 10 µM | > 25 µM | –
O=C(O)c1[nH]c2ccc(Cl)cc2c1-c1ccccc1F | 7.3 µM | > 25 µM | –
Nc1cc(Cn2c(C(=O)O)c(-n3c(=O)[nH]c4cscc4c3=O)c3cc(C(F)(F)F)ccc32)ccn1 | 0.032 µM | 1.4 µM | –
O=C(O)c1c(-c2cccnc2F)c2cc(Cl)ccc2n1Cc1ccc(F)cc1F | 0.3 µM | > 25 µM | –
Nc1cc(Cn2c(C(=O)O)c(-c3ccc[nH]c3=O)c3cc(C(F)(F)F)ccc32)ccn1 | 0.017 µM | 0.3 µM | –
CC(=O)Nc1cccc(Cn2c(C(=O)O)c(-c3ccccc3F)c3cc(Cl)ccc32)c1 | 0.6 µM | > 25 µM | –
O=C(O)c1c(-n2ccccc2=O)c2cc(Cl)ccc2n1Cc1ccccc1F | 0.15 µM | 19 µM | –
O=C(O)c1c(-c2ccccc2F)c2cc(Cl)ccc2n1Cc1ccc2ccccc2c1 | 4.4 µM | > 25 µM | –
O=C(O)c1c(-c2ccc(F)cc2)c2cc(Cl)ccc2n1Cc1cccc(Cl)c1 | > 48 µM | > 25 µM | –
O=C(O)c1cc2cc(Cl)ccc2n1Cc1ccccc1F | 17 µM | > 25 µM | –
O=C(O)c1c(-c2ccccc2F)c2cc(Cl)ccc2n1Cc1cccnc1 | 1.3 µM | > 25 µM | –
Cc1ccc2c(c1)c(-c1ccc[nH]c1=O)c(C(=O)O)n2Cc1ccc(F)cc1F | 0.046 µM | – | –
O=C(O)c1c(-c2ccc[nH]c2=O)c2cc(C(F)(F)F)ccc2n1Cc1ccc(F)cc1F | 0.025 µM | 4.8 µM | –
CCOc1ccc2c(c1)c(-c1ccc[nH]c1=O)c(C(=O)O)n2Cc1ccc(F)cc1F | 0.12 µM | 20 µM | –
O=C(O)c1c(-c2ccccc2F)c2cc(Cl)ccc2n1Cc1cccc(C(F)(F)F)c1 | > 44 µM | > 25 µM | –
NC(=O)Nc1c(C(=O)O)n(Cc2cc(F)ccc2F)c2ccc(C(F)(F)F)cc12 | 0.35 µM | > 10 µM | –

Structure (SMILES) | IC50 [1] | EC50 (Hepatitis C virus; [2]) | EC50 (Hepatitis C virus)
O=C(O)c1c(-c2ccccc2F)c2cc(Cl)ccc2n1C(=O)c1ccccc1 | 7.8 µM | > 25 µM | –
Nc1cc(Cn2c(C(=O)O)c(-c3ccc[nH]c3=O)c3cc(Cl)ccc32)ccn1 | 0.053 µM | 4.8 µM | –
O=C(O)c1c(-c2c[nH]c(=O)[nH]c2=O)c2cc(Cl)ccc2n1Cc1ccc(F)cc1F | 0.047 µM | 10 µM | –
O=C(O)c1c(-c2ccccc2F)c2cc(Cl)ccc2n1Cc1cccc(NCc2ccccc2)c1 | 0.7 µM | > 25 µM | –
O=C(O)c1c(-c2ccccc2F)c2cc(Cl)ccc2n1Cc1cc(F)ccc1F | 0.3 µM | > 25 µM | –
O=C(O)c1c(-n2c(=O)[nH]c3nccnc3c2=O)c2cc(C(F)(F)F)ccc2n1Cc1cc(F)ccc1F | 0.27 µM | > 10 µM | –
O=C(O)c1c(-c2cccc(Cl)c2)c2cc(Cl)ccc2n1Cc1cccc(Cl)c1 | 33 µM | > 25 µM | –
O=C(O)c1c(-c2ccc[nH]c2=O)c2cc(C3CC3)ccc2n1Cc1ccc(F)cc1F | 0.56 µM | > 50 µM | –
O=C(O)c1c(-c2ccccc2O)c2cc(Cl)ccc2n1Cc1cc(F)ccc1F | 1.4 µM | > 25 µM | –
O=C(O)c1c(-c2ccccc2F)c2cc(Cl)ccc2n1Cc1cccc(OC(F)(F)F)c1 | 1.8 µM | > 25 µM | –
O=C(O)c1c(-c2ccccc2F)c2cc(Cl)ccc2n1Cc1ccccc1 | – | > 100 µM | –
Nc1ccccc1Cn1c(C(=O)O)c(-c2ccccc2F)c2cc(Cl)ccc21 | 0.6 µM | > 25 µM | –
O=C(O)c1c(-c2ccc(F)c(F)c2)c2cc(Cl)ccc2n1Cc1cccc(Cl)c1 | > 46 µM | > 25 µM | –
Cc1ccc(Cn2c(C(=O)O)c(-c3ccccc3F)c3cc(Cl)ccc32)cc1N | 1.3 µM | > 25 µM | –
O=C(O)c1c(-c2ccccc2)c2cc(Cl)ccc2n1Cc1cccc(Cl)c1 | 4.2 µM | > 25 µM | –
Nc1cc(Cn2c(C(=O)O)c(N3CCNS3(=O)=O)c3cc(Cl)ccc32)ccn1 | > 20 µM | – | Not Active
O=C(O)c1c(-c2ccc[nH]c2=O)c2cc(Cl)ccc2n1Cc1ccc(F)cc1F | 0.035 µM | 10 µM | –
N#Cc1cccc(-c2c(C(=O)O)n(Cc3cccc(Cl)c3)c3ccc(Cl)cc23)c1 | 30 µM | > 25 µM | –
Nc1cc(Cn2c(C(=O)O)c(-c3c[nH]c(=O)[nH]c3=O)c3cc(Cl)ccc32)ccn1 | 0.031 µM | 2 µM | –
O=C(O)c1c(-c2ccccc2F)c2cc(Cl)ccc2n1Cc1ccncc1 | 1.2 µM | > 25 µM | –
O=C(O)c1c(-n2c(=O)[nH]c3cscc3c2=O)c2cc(C(F)(F)F)ccc2n1Cc1ccc(F)cc1F | 0.059 µM | 12 µM | –
O=C(O)c1c(-c2ccc3c(c2)OCO3)c2cc(Cl)ccc2n1Cc1cccc(Cl)c1 | 29 µM | > 25 µM | –
Cn1c(C(=O)O)c(-c2ccccc2F)c2cc(Cl)ccc21 | 1.3 µM | > 25 µM | –

— ChEMBL document CHEMBL1821565, “I. Novel HCV NS5B polymerase inhibitors: discovery of indole 2-carboxylic acids with C3-heterocycles” (Bioorg Med Chem Lett, 2011)
